Source: paper PMC10053440, “Semi-Synthesis and Biological Evaluation of 25(R)-26-Acetoxy-3β,5α-Dihydroxycholest-6-One” (Marine Drugs, 2023)
In brackets after ≈: the same amount, converted by molar mass.

Assays:
[1] = test system: respiratory syncytial virus (RSV); parameters: method as in PMID 24882250; conditions: read-out: anti-RSV IC50; cited from earlier work
[2] = test system: respiratory syncytial virus (RSV); experiment: Anti-RSV activity assay (RT-qPCR); format: cell-based; conditions: human respiratory syncytial virus, HEp-2 cells, mean ± SEM, read-out: Inhibition rate (%) of RSV replication
From the text: Remdesivir was selected and evaluated as a positive control.

[3] = test system: human leukemia cell line K-562; conditions: cited from earlier work
[4] = test system: 786-O (human renal cancer cell); experiment: CCK-8 anti-proliferation assay, 786-O; format: cell-based; conditions: 786-0, at 20 µM, 48 h, mean ± SEM, read-out: Inhibition Rate (%)
Experimental: (§1) One concentration was set for each sample during preliminary screening and three multiple holes were set for each concentration. Eight concentration gradients were set for each sample for IC50 determination and three multiple holes were set for each concentration. […] The absorbance was measured at 450 nm with an enzyme labeling instrument and the original data and results were recorded. […] Doxorubicin was used as a positive control. All the cancer cell lines were obtained from Qingdao AC biotechnology Co., LTD, Qingdao, China.

[5] = test system: A-375 (human melanoma cell); experiment: CCK-8 anti-proliferation assay, A-375; format: cell-based; conditions: at 20 µM, 48 h, mean ± SEM, read-out: Inhibition Rate (%)
Experimental: as §1

[6] = test system: K-562 (human myeloid leukemia cell); experiment: CCK-8 anti-proliferation assay, K-562; format: cell-based; conditions: 48 h, mean ± SEM; for inhibition at 20 µM: Homo sapiens, K562, at 20 µM, read-out: Inhibition Rate (%); for Inhibition Rate (%): at 20 µM
Experimental: as §1

[7] = test system: GBC-SD (human gallbladder carcinoma cell); experiment: CCK-8 anti-proliferation assay, GBC-SD; format: cell-based; conditions: at 20 µM, 48 h, mean ± SEM, read-out: Inhibition Rate (%)
Experimental: as §1

[8] = test system: 5637 (HTB-9) (human bladder cancer cell); experiment: CCK-8 anti-proliferation assay, 5637 (HTB-9); format: cell-based; conditions: for inhibition at 20 µM: 5637 (HTB-9), 48 h, mean ± SEM, read-out: Inhibition Rate (%)
Experimental: as §1

[9] = test system: TE-1 (human esophageal cancer cell); experiment: CCK-8 anti-proliferation assay, TE-1; format: cell-based; conditions: at 20 µM, 48 h, mean ± SEM, read-out: Inhibition Rate (%)
Experimental: as §1

[10] = test system: HeLa (human cervical cancer cell); experiment: CCK-8 anti-proliferation assay, HeLa; format: cell-based; conditions: at 20 µM, 48 h, mean ± SEM, read-out: Inhibition Rate (%)
Experimental: as §1

[11] = test system: SF126 (human glioblastoma cell); experiment: CCK-8 anti-proliferation assay, SF126; format: cell-based; conditions: SF-126, at 20 µM, 48 h, mean ± SEM, read-out: Inhibition Rate (%)
Experimental: as §1

[12] = test system: PATU8988T (human pancreatic cancer cell); experiment: CCK-8 anti-proliferation assay, PATU8988T; format: cell-based; conditions: PaTu 8988t, at 20 µM, 48 h, mean ± SEM, read-out: Inhibition Rate (%)
Experimental: as §1

[13] = test system: DU145 (human prostate carcinoma cell); experiment: CCK-8 anti-proliferation assay, DU145; format: cell-based; conditions: DU-145, at 20 µM, 48 h, mean ± SEM, read-out: Inhibition Rate (%)
Experimental: as §1

[14] = test system: A-673 (Ewing sarcoma); experiment: CCK-8 anti-proliferation assay, A-673; format: cell-based; conditions: Homo sapiens, A673, at 20 µM, 48 h, mean ± SEM, read-out: Inhibition Rate (%)
Experimental: as §1

[15] = test system: HCT 116 (human colorectal cancer cell); experiment: CCK-8 anti-proliferation assay, HCT 116; format: cell-based; conditions: at 20 µM, 48 h, mean ± SEM, read-out: Inhibition Rate (%)
Experimental: as §1

[16] = test system: 293T (human embryonic kidney cell); experiment: CCK-8 anti-proliferation assay, 293T; format: cell-based; conditions: HEK-293T, at 20 µM, 48 h, mean ± SEM, read-out: Inhibition Rate (%)
Experimental: as §1

[17] = test system: L-02 (human hepatocyte cell); experiment: CCK-8 anti-proliferation assay, L-02; format: cell-based; conditions: L-02 normal liver cells, at 20 µM, 48 h, mean ± SEM, read-out: Inhibition Rate (%)
Experimental: as §1

[18] = test system: MKN-45 (human gastric cancer cell); experiment: CCK-8 anti-proliferation assay, MKN-45; format: cell-based; conditions: at 20 µM, 48 h, mean ± SEM, read-out: Inhibition Rate (%)
Experimental: as §1

[19] = test system: HOS (human osteosarcoma cell); experiment: CCK-8 anti-proliferation assay, HOS; format: cell-based; conditions: at 20 µM, 48 h, mean ± SEM, read-out: Inhibition Rate (%)
Experimental: as §1

[20] = test system: MCF7 (human breast cancer cell); experiment: CCK-8 anti-proliferation assay, MCF7; format: cell-based; conditions: at 20 µM, 48 h, mean ± SEM, read-out: Inhibition Rate (%)
Experimental: as §1

[21] = test system: CAL-62 (human thyroid anaplastic carcinoma cell); experiment: CCK-8 anti-proliferation assay, CAL-62; format: cell-based; conditions: at 20 µM, 48 h, mean ± SEM, read-out: Inhibition Rate (%)
Experimental: as §1

[22] = test system: HepG2 (human liver carcinoma cell); experiment: CCK-8 anti-proliferation assay, HepG2; format: cell-based; conditions: for inhibition at 20 µM: 48 h, mean ± SEM, read-out: Inhibition Rate (%)
Experimental: as §1

[23] = test system: A549 (human lung adenocarcinoma cell); experiment: CCK-8 anti-proliferation assay, A549; format: cell-based; conditions: A549, 48 h, at 20 µM, mean ± SEM, read-out: Inhibition Rate (%)
Experimental: as §1

[24] = test system: 5637 (HTB-9) cells; experiment: Apoptosis assay, Annexin V-FITC/PI flow cytometry; format: cell-based, human; conditions: 48 h
Experimental: Next, the apoptosis study of compound ([…])-5 was investigated against 5637 (HTB-9) cells based on a standard flow cytometry technique and assessed by Annexin V-FITC/PI staining. […] The percent of apoptosis in cells was assayed according to the instructions (Vazyme, A211). 5637 (HTB-9) cells were seeded in 6-well plates at 2 × 10^5 cells/well overnight and treated with compound ([…])-5 at various concentrations for 48 h. Trypsinization of the cells occurred without EDTA and they were collected in tubes and suspended in 100 μL ice-cold 1 × binding buffer after being washed twice with PBS. Cells were stained with PI and FITC Annexin V for 10 min at room temperature following the instructions of the Annexin V FITC/PI kit (Vazyme Biotech, Nanjing, China). Next, 200 μL ice-cold 1 × binding buffer was added. The result was measured by flow cytometry (MoFlo XDP, Beckman, Pasadena, CA, USA). For each condition, a minimum of 10,000 cells were analyzed. Triplicate experiments were performed independently.

Compound	inhibition at 10 µM [2]	inhibition at 20 µM [4]	inhibition at 20 µM [5]	inhibition at 20 µM [6]	Inhibition Rate (%) [6]	inhibition at 20 µM [7]	inhibition at 20 µM [8]	inhibition at 20 µM [9]	inhibition at 20 µM [10]	inhibition at 20 µM [11]	inhibition at 20 µM [12]	inhibition at 20 µM [13]	inhibition at 20 µM [14]	inhibition at 20 µM [15]	inhibition at 20 µM [16]	inhibition at 20 µM [17]	inhibition at 20 µM [18]	inhibition at 20 µM [19]	inhibition at 20 µM [20]	inhibition at 20 µM [21]	further results
CC(=O)OCC(C)/C=C/[C@@H](C)[C@H]1CC[C@H]2[C@@H]3CC(=O)[C@@]4(O)C[C@@H](O)CC[C@]4(C)[C@H]3CC[C@]12C (some centres unmarked) [compound 4]	–	–	–	–	–	–	–	–	–	–	–	–	–	–	–	–	–	–	–	–	IC50 [1]: 3.23 µM
CC(=O)OCC(C)CCC[C@@H](C)[C@H]1CC[C@H]2[C@@H]3CC(=O)[C@@]4(O)C[C@@H](O)CC[C@]4(C)[C@H]3CC[C@]12C (some centres unmarked) [compound 5]	18.3 ± 3.8%	–	–	–	–	–	–	–	–	–	–	–	–	–	–	–	–	–	–	–	LC50 [3]: 0.9 µg/mL (≈ 1.89 µM)
CC(=O)OC[C@H](C)CCC[C@@H](C)[C@H]1CC[C@H]2[C@@H]3C[C@@H](O)[C@@]4(O)C[C@@H](O)CC[C@]4(C)[C@H]3CC[C@]12C [compound 13, (2R,6R)-2-Methyl-6-((3S,5R,6R,8S,9S,10R,13R,14S,17R)-3,5,6-Trihydroxy-10,13-Dimethylhexadecahydro-1H-Cyclopenta[a]Phenanthren-17-yl) Heptyl Acetate]	13.6 ± 2.1%	20.5 ± 1.3%	54.8 ± 1.7%	7.8 ± 2.3%	did not exhibit any anti-proliferative activities	6 ± 2.4%	52.2 ± 4.5%	13.5 ± 2.6%	-2.3 ± 1.7%	4.7 ± 1.3%	53.6 ± 1.7%	-0.4 ± 3.9%	66.3 ± 3.2%	19.3 ± 1.2%	37.3 ± 2.7%	6.3 ± 3.2%	52.7 ± 2.4%	52.6 ± 1.5%	19 ± 1.1%	7.5 ± 2.7%	melting point: 201 to 202 °C; inhibition at 20 µM [22]: 58 ± 1.2%
CC(=O)OC[C@H](C)CCC[C@@H](C)[C@H]1CC[C@H]2[C@@H]3CC(=O)[C@@]4(O)C[C@@H](O)CC[C@]4(C)[C@H]3CC[C@]12C [compound (25R)-5, (2R,6R)-6-((3S,5R,8S,9S,10R,13R,14S,17R)-3,5-Dihydroxy-10,13-Dimethyl-6-Oxohexadecahydro-1H-Cyclopenta[a]Phenanthren-17-yl)-2-Methylheptyl Acetate]	29.4 ± 7.1%	65.3 ± 0.5%	76.3 ± 1.7%	17.1 ± 2.8%	weak inhibition activity	28.1 ± 1.5%	64.7 ± 3.4%	29.5 ± 2.2%	22.7 ± 1.2%	28.1 ± 0.5%	65.9 ± 4.2%	12.2 ± 2%	49.4 ± 1.4%	59.3 ± 3.8%	26.2 ± 1.5%	-4.9 ± 3.4%	61.1 ± 1.4%	22.2 ± 1.1%	19.3 ± 2.1%	18.2 ± 1.9%	inhibition at 20 µM [23]: ≤ 50%; IC50 ([8]; CCK-8, 48 h, read-out: IC50 against 5637 (HTB-9) cells): 4.8 µM; induction of apoptosis (early-stage Annexin V-FITC+/PI- and late-stage Annexin V-FITC+/PI+) [24]: induced apoptotic cell death in a dose-dependent manner; IC50 ([22]; CCK-8, 48 h, read-out: IC50 against HepG2 cells): 15.5 µM; inhibition at 20 µM [22]: 66.8 ± 2.1%
